Data reported in publication PMC10931745 (International Journal of Molecular Sciences, 2024).

Tests used:
[1] = tested on: NO production in LPS-stimulated RAW 264.7 macrophages; test: Griess assay, NO production; assay type: cell-based, murine; conditions: 25 µM, LPS 1 µg/mL, 24 h
Procedure: The Griess assay was performed using RAW 264.7 murine macrophages to study the anti-inflammatory activity in terms of NO production. RAW 264.7 cells were plated in the 48 multi-wells and, after 24 h, treated with the tested molecules (25 µM) and the lipopolysaccharide (LPS, Sigma Aldrich, Milan, Italy) at a final concentration of 1 µg/mL. LPS is able to induce inflammation by stimulating NO production in immune system cells such as macrophages. After 24 h, the cell medium Griess reagent (Sigma Aldrich, Milan, Italy) was mixed in with a ratio of 1:1. The Griess reagent allowed for the quantification of NO released by macrophages in the treatment medium. The mixture was left for 30 min under agitation and, subsequently, the absorbance at 540 nm was measured using a multiplate reader. The obtained absorbance allowed us to calculate the NO production % compared to the absorbance obtained for the positive control, in which the cells were treated with LPS.

[2] = tested on: iNOS expression in RAW 264.7 macrophages; test: Immunofluorescence, iNOS expression; assay type: cell-based, murine; conditions: 25 µM, co-treated with LPS 1 µg/mL
Procedure: (§1) After a PBS wash, cells were fixed using cold methanol (15 min at −20 °C) and incubated overnight at 4 °C with the primary antibodies raised against NF-κB, iNOS, TNF-α, and COX-1 and 2 (Santa Cruz Biotechnology Inc., Santa Cruz, CA, USA) diluted in BSA 2%, as previously described. […] DAPI (Sigma Aldrich, Milan, Italy) 0.2 µg/mL was added for 10 min for nuclei counterstaining. A fluorescence microscope (Leica DM 6000) was used for visualizing images, and LAS-X software 3.5.7.23225 was used for acquisition and processing.

[3] = tested on: COX-1 expression in RAW 264.7 macrophages; test: Immunofluorescence, COX-1 expression; assay type: cell-based, murine; conditions: 25 µM, co-treated with LPS 1 µg/mL
Procedure: as §1

[4] = tested on: COX-2 expression in RAW 264.7 macrophages; test: Immunofluorescence, COX-2 expression; assay type: cell-based, murine; conditions: 25 µM, co-treated with LPS 1 µg/mL
Procedure: as §1

[5] = tested on: NF-κB localization in RAW 264.7 macrophages; test: Immunofluorescence, NF-κB localization; assay type: cell-based, murine; conditions: 25 µM, co-treated with LPS 1 µg/mL
Procedure: as §1

[6] = tested on: MCF-7; test: MTT cell viability assay; assay type: cell-based, human; conditions: 72 h
Procedure: (§2) The cell lines used were purchased from American Type Culture Collection (ATCC, Manassas, VA, USA). Human breast cancer cells MCF-7 and MDA-MB-231, human mammary epithelial cell line MCF-10A, and mouse BALB/3T3 embryonic fibroblasts were cultured as already described by some of us. The murine macrophage cell line RAW 264.7 was maintained in Dulbecco’s Modified Eagle’s Medium (DMEM) high glucose (4.5 g/L) supplemented with 10% Fetal Bovine Serum (FBS), 1% L-glutamine, and 100 units/mL of penicillin/streptomycin. The cell cultures were maintained at the temperature of 37 °C in a humidified atmosphere containing 5% CO2.
(§3) The 3-(4,5-dimethylthiazol-2-yl)-2,5-diphenyl-2H-tetrazolium bromide (MTT) assay (Sigma Aldrich (St. Louis, MO, USA)) was carried out to study the in vitro anticancer activities of the complexes, following the previously reported protocol. The cells were incubated for 72 h with different concentrations of the tested compounds (0.1, 1, 10, 25, 50, 100, and 500 µM) and the IC50 values were calculated from the percent (%) of control using the software GraphPad Prism 9 (GraphPad Software, La Jolla, CA, USA).

[7] = tested on: MDA-MB-231; test: MTT cell viability assay; assay type: cell-based, human; conditions: 72 h
Procedure: as §2, §3

[8] = tested on: human mammary epithelial cell line MCF-10A; test: MTT assay, toxicity towards normal cells; assay type: cell-based; conditions: 72 h
Procedure: as §2, §3

[9] = tested on: ROS production in BALB/3T3 fibroblasts; test: Intracellular ROS detection with DCFH2-DA; assay type: cell-based, murine; conditions: 25 µM, 24 h pre-treatment
Procedure: In vitro detection of intracellular ROS on fibroblasts BALB/3T3 using DCFH2-DA The assay to evaluate the in vitro antioxidant activity was carried out using the murine BALB/3T3 fibroblasts that were plated in a white 96 MW and then treated with the complexes at a concentration of 25 µM for 24 h. Menadione (25 µM) was then added for 15 min to induce ROS production. After treatment, the cells were washed with PBS and treated with 25 μM 2′-7′-dichlorofluorescein diacetate (DCFH2-DA, Sigma-Aldrich, St. Louis, MO, USA), and then they were incubated for 40 min at 37 °C and 5% CO2. The probe DCFH2-DA penetrates cells where it is […] into a non-fluorescent form (DCFH2) by endogenous esterases. In the presence of intracellular ROS, non-fluorescent H2DCF is oxidized to the fluorescent 2′,7′-dichlorofluorescein (DCF). Then, the cells were washed with PBS and the fluorescence was detected using a multiplate reader (λex = 485 nm, λem = 535 nm). Based on the obtained fluorescence values, the ROS production inhibition % (IROS) vs. menadione was calculated using the following formula:(1) IROS vs. Menadione (%)=FMen−FSample/FMen∗100 where FMen represents the mean fluorescence obtained after treatment with menadione alone and Fsample represents the mean fluorescence obtained after the co-treatment with the complexes and menadione.

[10] = ABTS radical scavenging assay; assay type: biochemical
Procedure: The radical scavenging properties of the complexes on a 2,20-azino-bis(3-ethylbenzothiazoline-6-sulfonate) radical cation (ABTS^+) were evaluated as previously described.
All the complexes were used at different concentrations (5, 10, 25, 50, and 100 µg/mL) and the ABTS radical scavenging activity, measured at 730 nm using a microplate reader, was expressed as inhibition percentages (%IABTS) compared tothe control, according to the following expression:(3) IABTS (%)=ABSCTRL−ABSsample/ABSCTRL∗100 where ABSCTRL and ABSsample are the absorbance at 730 nm in the control and in the presence of samples, respectively.
IC50 values were calculated from the %IABTS using GraphPad Prism 9 software (GraphPad Inc., San Diego, CA, USA). Trolox was employed as a positive control, while caffeine and theophylline were reference compounds.

[11] = DPPH radical scavenging assay; assay type: biochemical
Procedure: The radical scavenging properties of the complexes on the 1,1-diphenyl-2-picrylhydrazil (DPPH) radical were evaluated as previously described.
All the complexes were used at different concentrations (10, 25, 50, 100, and 200 µg/mL) and the DPPH radical scavenging activity, measured at 517 nm using a microplate reader, was expressed as inhibition percentages (%IDPPH) compared to the initial concentration of DPPH (control) according to the following expression:(2) IDPPH (%)=ABSCTRL−ABSsample/ABSCTRL∗100 where ABSCTRL and ABSsample are the absorbance at 517 nm in the control and in the presence of samples, respectively.
The obtained IDPPH percentages allowed us to calculate the IC50 values using Graph-Pad Prism 9 software (GraphPad Inc., San Diego, CA, USA). Trolox was employed as a positive control, while caffeine and theophylline were reference compounds.

[12] = tested on: Escherichia coli (ATCC 25922); test: MIC/MBC broth dilution; assay type: cell-based
Procedure: (§4) The bacterial strains used for MIC and MBC value determinations expressed as µg/mL by the broth dilution method, according to CLSI guidelines, were the following:
(§5) -4 Gram-negative: Escherichia coli (ATCC® 25922^TM) and Klebsiella pneumoniae (ATCC® 13883^TM);
(§6) Increasing concentrations of the complexes (50, 70, 100, 150, and 200 µg/mL) were incubated with bacteria plated in 96-well microplates at 37 °C overnight as already reported, and then bacterial growth was checked at a wavelength of 600 nm using a Multiskan spectrophotometer (model Multiskan Ex Microplate; Thermo Scientific, Nyon, Switzerland). MIC or MBC values were obtained by comparing cell density with a positive control (bacterial cells grown in LB medium were added with only the vehicle, DMSO). The results were representative of three independent experiments performed in triplicate. Ampicillin, Gentamicin, and Cephalosporin (Sigma Aldrich A9393) were used as the control for strain sensitivity.

[13] = tested on: Klebsiella pneumoniae (ATCC 13883); test: MIC/MBC broth dilution; assay type: cell-based
Procedure: as §4, §5, §6

[14] = tested on: Enterococcus faecalis (ATCC 19433); test: MIC/MBC broth dilution; assay type: cell-based
Procedure: as §4
(§7) -3 Gram-positive: Enterococcus faecalis (ATCC® 19433^TM), Staphylococcus aureus (ATCC® 23235^TM), and Staphylococcus epidermidis (ATCC® 14990™).
as §6

[15] = tested on: Staphylococcus aureus (ATCC 23235); test: MIC/MBC broth dilution; assay type: cell-based
Procedure: as §4, §7, §6

[16] = tested on: Staphylococcus epidermidis (ATCC 14990); test: MIC/MBC broth dilution; assay type: cell-based
Procedure: as §4, §7, §6

[17] = tested on: Pseudomonas aeruginosa (ATCC 15442); test: MIC/MBC broth dilution; assay type: cell-based
Procedure: as §4
as §6, with “The results were representative of three independent experiments performed in triplicate.” left out

[18] = tested on: Salmonella typhimurium (ATCC 14028); test: MIC/MBC broth dilution; assay type: cell-based
Procedure: as §4
as §6, with “The results were representative of three independent experiments performed in triplicate.” left out

Compound	Reduction in NO production [1]	iNOS expression level [2]	COX-1 protein expression level [3]	Reduction in COX-2 expression (fluorescence) [4]	NF-κB intracellular localization [5]	IC50 [6] [µM]	IC50 [7] [µM]	IC50 [8] [µM]	ROS level reduction vs. menadione [9]	IC50 [10] [µM]	IC50 [11] [µM]	M.B.C. E. coli [12] [µg/mL]	M.B.C. K. pneumoniae [13] [µg/mL]	M.I.C. K. pneumoniae [13] [µg/mL]	M.B.C. E. faecalis [14] [µg/mL]	M.I.C. E. faecalis [14] [µg/mL]	M.I.C. S. aureus [15] [µg/mL]	M.I.C. S. epidermidis [16] [µg/mL]	M.I.C. P. aeruginosa [17] [µg/mL]	M.I.C. S. typhimurium [18] [µg/mL]	other results
COc1ccc2c(c1)c(CC(=O)O)c(C)n2C(=O)c1ccc(Cl)cc1 [indomethacin, reference compound]	about 11.23%	lower, reaching those obtained with the CTRL cells	no difference in protein expression level	about 30%	higher cytoplasmic localization of NF-κB																
CC(=O)[O][Ag-][c]1n(C)c2c(c(=O)n(C)c(=O)n2C)[n+]1CC(O)c1ccccc1 (racemic) [AgL1OAc, 1,3,7-Trimethylxanthin-9-[(2-hydroxy-2-phenyl)ethyl-8-ylidene]Ag(I) Acetate]						39.6 ± 0.8	32.3 ± 0.9	> 100	about 61%	149.2 ± 0.7	> 500	> 150	> 150	125	> 200	150	125	125	125	150	M.B.C. S. aureus [15]: > 150 µg/mL; M.B.C. S. epidermidis [16]: > 150 µg/mL; M.B.C. P. aeruginosa [17]: > 150 µg/mL; M.B.C. S. typhimurium [18]: > 200 µg/mL
Cn1c(=O)c2c(n(C)[c]([Au-][I])[n+]2CCO)n(C)c1=O [AuL3]	~14.12%		no difference in protein expression level	about 40%	mostly cytoplasmic	> 100	> 100	> 100		> 500	> 500			>200		>200	>200	>200	>200	>200	M.I.C. E. coli [12]: >200 µg/mL
CC(=O)[O][Ag-][c]1n(C)c2c(c(=O)n(C)c(=O)n2C)[n+]1CCO [AgL3OAc, 1,3,7-Trimethylxanthin-9-[(2-hydroxy)ethyl)-8-ylidene]Ag(I) Acetate]	about 14.35%	net reduction in iNOS expression	no difference in protein expression level	about 60%	mostly cytoplasmic	> 100	> 100	> 100		> 500	> 500	> 200	> 200	150	> 200	150	125	100	150	150	M.B.C. S. aureus [15]: > 200 µg/mL; M.B.C. S. epidermidis [16]: > 125 µg/mL; M.B.C. P. aeruginosa [17]: > 200 µg/mL; M.B.C. S. typhimurium [18]: > 200 µg/mL
1,3,7-Trimethylxanthin-9-[(2-hydroxy-2-phenyl)ethyl-8-ylidene]Au(I) Acetate [AuL1OAc]						> 100	> 100	> 100	~54%	> 500	> 500			>200		>200	>200	>200	>200	>200	M.I.C. E. coli [12]: >200 µg/mL
